Molecules are shown by their SMILES.

One series addresses human PAI-1 (Homo sapiens, UniProt P05121). Description: Assay for determining IC50 of inhibition of PAI-1 (active PAI-1 bound to tPA-coated plate, antibody detection). Format: binding. The settings on record: human PAI-1 50 ng/ml, pH 7.5, tPA-coated plate. As for the experimental part:
Assay for Determining IC50 of Inhibition of PAI-1
This assay was based upon the non-SDS dissociable interaction between tPA and active PAI-1. Assay plates were initially coated with human tPA (10 μg/ml). Test compounds were dissolved in DMSO at 10 mM, then diluted with physiologic buffer (pH 7.5) to a final concentration of 1–50 μM. The test compounds were incubated with human PAI-1 (50 ng/ml) for 15 minutes at room temperature. The tPA-coated plate was washed with a solution of 0.05% Tween 20 and 0.1% BSA, then the plate is blocked with a solution of 3% BSA. An aliquot of the test compound/PAI-1 solution was then added to the tPA-coated plate, incubated at room temperature for 1 hour, and washed. Active PAI-1 bound to the plate was assessed by adding an aliquot of a 1:1000 dilution of the 33B8 monoclonal antibody against human PAI-1, and incubating the plate at room temperature for 1 hour (Molecular Innovations, Royal Oak, Mich.). […] The plate was incubated 45 minutes at room temperature, and color development is determined at OD405nm. The quantitation of active PAI-1 bound to tPA at varying concentrations of the test compound was used to determine the IC50. Results were analyzed using a logarithmic best-fit equation. The assay sensitivity is 5 ng/ml of human PAI-1 as determined from a standard curve ranging from 0–100 ng/ml.

Series [1] deals with T1, recombinant human plasminogen activator inhibitor-1 (Homo sapiens, UniProt P05121).
T1 construct: purchased Molecular Innovations, Royal Oak, Mich
T1 sequence (P05121 24-402): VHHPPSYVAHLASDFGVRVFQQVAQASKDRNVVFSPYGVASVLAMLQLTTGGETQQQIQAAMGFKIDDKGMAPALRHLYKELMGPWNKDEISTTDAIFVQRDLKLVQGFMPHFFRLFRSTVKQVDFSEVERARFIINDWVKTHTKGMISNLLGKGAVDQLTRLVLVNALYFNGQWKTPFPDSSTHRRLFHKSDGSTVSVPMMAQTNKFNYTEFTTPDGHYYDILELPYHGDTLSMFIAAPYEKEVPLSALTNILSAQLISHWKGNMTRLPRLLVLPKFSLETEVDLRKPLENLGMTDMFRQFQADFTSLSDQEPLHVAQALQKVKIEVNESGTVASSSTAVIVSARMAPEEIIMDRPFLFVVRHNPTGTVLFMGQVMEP
Description: Primary screen for the PAI-1 inhibition (residual tPA activity, chromogenic substrate Spectrozyme-tPA). Format: biochemical. To be noted: 25 uM test compound; 140 nM PAI-1, 70 nM tPA, pH 6.6. As for the experimental part:
Primary Screen for the PAI-1 Inhibition The ability of the compounds of this invention to inhibit plasminogen activator inhibitor-1 was established by the following experimental procedures: Test compounds were dissolved in DMSO at a final concentration of 10 mM, then diluted 100× in physiologic buffer. The inhibitory assay was initiated by the addition of the test compound (1–100 μM final concentration, maximum DMSO concentration of 0.2%) in a pH 6.6 buffer containing 140 nM recombinant human plasminogen activator inhibitor-1 (Molecular Innovations, Royal Oak, Mich.). Following a 1 hour incubation at room temperature, 70 nM of recombinant human tissue plasminogen activator (tPA) was added, and the combination of the test compound, PAI-1 and tPA was incubated for an additional 30 minutes. Following the second incubation, Spectrozyme-tPA (American Diagnostica, Greenwich, Conn.), a chromogenic substrate for tPA, was added and absorbance was read at 405 nm at 0 and 60 minutes. Relative PAI-1 inhibition was equal to the residual tPA activity in the presence of the test compounds and PAI-1. Control treatments included the complete inhibition of tPA by PAI-1 at the molar ratio employed (2:1), and the absence of any effect of the test compound on tPA alone.

Chain of human PAI-1 (P05121 24-402): as above

A word on the IC50: it is the concentration at which inhibition is half-maximal. Low readings indicate inhibition by little substance, high ones a need for much substance. The term melting point denotes the temperature, or range, at which the solid turns liquid. `Cc1cccc(-c2ccc3c(c2)c(C(=O)C(=O)NCC(=O)O)cn3Cc2ccc(C(C)(C)C)cc2)c1` [Example 1, {[[1-(4-tert-butylbenzyl)-5-(3-methylphenyl)-1H-indol-3-yl](oxo)acetyl]amino}acetic acid] gave a melting point of 120 to 121 °C. Also, inhibition against human PAI-1 was half-maximal at 29 µM (IC50).

Regarding `O=C(O)CNC(=O)C(=O)c1cn(Cc2ccccc2)c2ccc(-c3ccc(OC(F)(F)F)cc3)cc12` [Example 2, 2-[(2-{1-Benzyl-5-[4-(trifluoromethoxy)phenyl]-1H-indol-3-yl}-2-oxoacetyl)amino]acetic acid], the melting point was 211 to 212 °C (dec.). Moreover, the concentration for half-maximal inhibition (IC50) at human PAI-1 was found to be 28 µM.

For orientation: inhibition means the relative decrease from the control value, in per cent. As for `CN(CC(=O)O)C(=O)C(=O)c1cn(Cc2ccccc2)c2ccc(-c3cccc(OC(F)(F)F)c3)cc12` [Example 3, 2-[(2-{1-Benzyl-5-[3-(trifluoromethoxy)phenyl]-1H-indol-3-yl}-2-oxoacetyl)(methyl)amino]acetic acid], the melting point fell in the range of 178 to 179 °C. The inhibition at 25 µM in series [1] amounted to 24%.

(Values after US7056943B2, “Substituted indole oxo-acetyl amino acetic acid derivatives as inhibitors of plasminogen activator inhibitor-1 (PAI-1)” (Wyeth, priority 2002, dated 2006).)
